The source of these data is US12459957B2, “Therapeutic compounds and methods” (GENENTECH, INC., priority 2021, dated 2025).

Molecules are shown by their SMILES.

Assay [1] deals with neutrophils (PMA-stimulated ROS). The experiment in a line: ROS detection assay (ROS-Glo, H2O2). Format: cell-based. Particulars: Neutrophil; human neutrophils, 30 min preincubation, 50 nM PMA for 30 min. As to the method:
ROS were measured in neutrophils using the ROS-Glo bioluminescent assay (Promega) for the direct detection of H2O2. Neutrophils were isolated from fresh human blood using a biphasic Histopaque gradient as described here. Cells (100 uL per well) were plated in 96-well plates at a density of 200,000 cells/mL in high glucose DMEM medium. Cells were preincubated with either DMSO vehicle or compounds (10-point dilution curve starting at 2 uM with 3-fold serial dilution) for 30 min, and then stimulated with 50 nM PMA for 30 min. Luminescence, after the addition of H2O2 substrate solution for 20 min, and then ROS-Glo detection solution for 20 min, was recorded on a luminescence plate reader. The fifty percent inhibitory concentration (IC50) was determined with GraphPad Prism by plotting the assay output (RLU) versus the logarithm of the compound concentration using a non-linear sigmoid with variable slope algorithm with the default curve-fitting parameters in the Prism software.

For assay [2], the system named is neutrophils (PMA-stimulated NETosis). The assay is described as follows: Quantification of NETosis using SYTOX Green. The assay is classed as cell-based, human. Particulars: for 5 uM (% NETosis): compound at 5 uM, NET-forming cells as percentage of total cells, vehicle 79.66, untreated 14.54; for IC50: Homo sapiens, Neutrophil, NETosis, SYTOX Green-stained neutrophils, PMA-stimulated. An excerpt:
Semi-automated analysis of both phase and fluorescence images of SYTOX Green-stained neutrophils used a MATLAB algorithm. Total cells were counted by scoring phase standard deviation and radial symmetry. NETosis was classified in cells by measuring the DNA area in the fluorescence image and comparing with a select internal training set for each experiment. Unstimulated cells and PMA-stimulated, pyocyanin-inhibited cells served as negative controls. PMA-stimulated cells served as a positive control. NET-forming cells are presented as a percentage of total cells.

For `CC(=O)Nc1ccc2c(c1)OCc1cc(-c3ccncc3F)nn1C2` [Example 129], the IC50 (in general, the point on the concentration scale where inhibition reaches its midpoint) in assay [1] was determined as 903 nM.

As for `CC(=O)Nc1ccc2c(c1)OCc1cc(-c3ccncc3C)nn1C2` [Example 68], the “5 uM (% NETosis)” value in assay [2] is recorded as 43.49%. In assay [1], this molecule displayed a half-maximal inhibitory concentration (IC50) of 233 nM.

With `CC(=O)Nc1ccc2c(c1)OCc1cc(-c3cnn(C(C)C)c3)nn1C2` [Example 108], half-maximal inhibition in assay [1] (IC50) required 285 nM. The same measure, in the same setting: the same measure for `CC(=O)Nc1ccc2c(c1)OCc1cc(-c3cn(C)nc3C)nn1C2` [Example 113]: 1460 nM; for `CC(=O)Nc1ccc2c(c1)OCc1cc(-c3cnn(C)c3C)nn1C2` [Example 121]: 836 nM. Same read-out and setting: the result for `CC(=O)Nc1ccc2c(c1)OCc1cc(-c3cnn(C4COC4)c3)nn1C2` [Example 119] reads 714 nM; that for `CC(=O)Nc1ccc2c(c1)OCc1cc(-c3cnn(C4CCCCO4)c3)nn1C2` (centres unmarked) [Example 115], 7750 nM; that for `CC(=O)Nc1ccc2c(c1)OCc1cc(-c3cccnc3)nn1C2` [Example 127], 1360 nM. The same measure, in the same setting: the same measure for `CC(=O)Nc1ccc2c(c1)OCc1cc(-c3cnn4c3CCC4)nn1C2` [Example 122]: 1200 nM. As for `c1ccc(-c2cc3n(n2)Cc2ccc(Nc4cn[nH]c4)cc2OC3)cc1` [Example 19], in assay [2], the “5 uM (% NETosis)” value is listed as 62.75%. Also, the IC50 in assay [1] is over 20000 nM. The matching figures for `CC(=O)Nc1ccc2c(c1)OCc1cc(-c3cnn(C(F)F)c3)nn1C2` [Example 67, N-(2-(1-(difluoromethyl)-1H-pyrazol-4-yl)-4H,10H-benzo[f]pyrazolo[5,1-c][1,4]oxazepin-7-yl)acetamide]: 39.88% and 192 nM.

`CC(=O)Nc1ccc2c(c1)OCc1cc(-c3cnn(C(F)(F)F)c3)nn1C2` [Example 125, N-(2-(1-(trifluoromethyl)-1H-pyrazol-4-yl)-4H,10H-benzo[f]pyrazolo[5,1-c][1,4]oxazepin-7-yl)acetamide]: it took 56 nM to reach half-maximal inhibition in assay [1] (IC50).

`CC(=O)Nc1ccc2c(c1)OCc1cc(-c3c[nH]nc3C(C)C)nn1C2` [Example 111] registered a half-maximal inhibitory concentration (IC50) in assay [1] of 2100 nM. Consider `CC(=O)Nc1ccc2c(c1)OCc1cc(-c3cncs3)nn1C2` [Example 54], for which the “5 uM (% NETosis)” value in assay [2] was 37.45%. The IC50 in assay [1] was over 20000 nM. In assay [1], `CC(=O)Nc1ccc2c(c1)OCc1cc(-c3cn(C)nc3C(F)(F)F)nn1C2` [Example 110] yielded an IC50 of 1580 nM. In assay [1], `CC(=O)Nc1ccc2c(c1)OCc1cc(-c3ccncc3)nn1C2` [Example 124] gave an IC50 of 410 nM. On to `CC(=O)Nc1ccc2c(c1)OCc1cc(-c3c(C)cnn3C)nn1C2` [Example 59], for which the “5 uM (% NETosis)” value in assay [2] is 66.88%.

As to `CC(=O)Nc1ccc2c(c1)OCc1cc(-c3cnn(CC(C)C)c3)nn1C2` [Example 120], in assay [1], half-maximal inhibition (IC50) was put at 346 nM. Regarding `CC(=O)Nc1ccc2c(c1)OCc1cc(-c3cc[nH]n3)nn1C2` [Example 57], in assay [2], the “5 uM (% NETosis)” value is 87.44%.

As to `CC(=O)Nc1ccc2c(c1)OCc1cc(-c3ccc(CN(C)C)cc3)nn1C2` [Example 107], in assay [2], the “5 uM (% NETosis)” value is listed as 85.67%. For the molecule `CC(=O)Nc1ccc2c(c1)OCc1cc(-c3ccccc3)nn1C2` [Example 1, N-(2-Phenyl-4H,10H-benzo[f]pyrazolo[5,1-c][1,4]oxazepin-7-yl)acetamide], in assay [2], inhibition was half-maximal at 190 ± 30 nM (IC50) and the “5 uM (% NETosis)” value came to 37.78%. Besides, half-maximal inhibition in assay [1] (IC50) was put at 93 nM.

For the molecule `C#Cc1ccccc1-c1cc2n(n1)Cc1ccc(NC(C)=O)cc1OC2` [Example 44], the “5 uM (% NETosis)” value in assay [2] amounted to 83.27%. As to `CC(=O)Nc1ccc2c(c1)OCc1cc(-c3cccc(S(C)(=O)=O)c3)nn1C2` [Example 80], in assay [2], the “5 uM (% NETosis)” value stood at 46.95%. In turn, `CC(=O)Nc1ccc2c(c1)OCc1cc(-c3cnn(CF)c3)nn1C2` [Example 117] showed a half-inhibitory concentration (IC50) in assay [1] of 204 nM. As for `c1ccc(-c2cc3n(n2)Cc2ccc(Nc4ccn[nH]4)cc2OC3)cc1` [Example 36], in assay [2], the “5 uM (% NETosis)” value was 46.06%. The molecule also showed a half-maximal inhibitory concentration (IC50) in assay [1] of 1400 nM. Take `CC(=O)NCc1cc(-c2cc3n(n2)Cc2ccc(NC(C)=O)cc2OC3)ccc1F` [Example 98]: the “5 uM (% NETosis)” value in assay [2] stood at 48.65%. Consider `c1ccc(-c2cc3n(n2)Cc2ccc(NC4CCCC4)cc2OC3)cc1` [Example 21, N-cyclopentyl-2-phenyl-4H,10H-benzo[f]pyrazolo[5,1-c][1,4]oxazepin-7-amine], for which the “5 uM (% NETosis)” value in assay [2] is 86.47%. Turning to `CC(=O)Nc1ccc2c(c1)OCc1cc(-c3cnccc3C#N)nn1C2` [Example 72], the “5 uM (% NETosis)” value in assay [2] came out at 80.10%.

`CC(=O)Nc1ccc2c(c1)OCc1cc(-c3cccc(C#N)n3)nn1C2` [Example 78]: the “5 uM (% NETosis)” value in assay [2] was determined as 58.91%. Same read-out and setting: the result for `CC(=O)Nc1ccc2c(c1)OCc1cc(-c3ccc(F)cc3O)nn1C2` [Example 51] reads 57.20%; that for `CC(=O)Nc1cccc(-c2cc3n(n2)Cc2ccc(NC(C)=O)cc2OC3)c1` [Example 104], 26.79%. Still for that read-out and setting: the result for `c1ccc(-c2cc3n(n2)Cc2ccc(NC4COC4)cc2OC3)cc1` [Example 30] reads 84.70%; that for `CC(=O)Nc1ccc2c(c1)OCc1cc(-c3ccccc3C)nn1C2` [Example 50], 72.49%. Regarding `Cc1cc(Nc2ccc3c(c2)OCc2cc(-c4ccccc4)nn2C3)[nH]n1` [Example 33], the “5 uM (% NETosis)” value in assay [2] is recorded as 69.42%. The molecule also gave an IC50 in assay [1] of over 20000 nM.

In assay [1], `CC(=O)Nc1ccc2c(c1)OCc1cc(-c3c[nH]nc3C3CC3)nn1C2` [Example 118] showed an IC50 of over 20000 nM. In the case of `CC(=O)Nc1ccc2c(c1)OCc1cc(-c3cccc(N(C)C(C)=O)c3)nn1C2` [Example 103], the “5 uM (% NETosis)” value in assay [2] is 75.39%.

Molecule `CC(=O)Nc1ccc2c(c1)OCc1cc(-c3cnn(C4CC4)c3)nn1C2` [Example 109] yielded an IC50 in assay [1] of 480 nM. As to `CC(=O)Nc1ccc2c(c1)OCc1cc(-c3cccc(CC#N)c3)nn1C2` [Example 47], in assay [2], the “5 uM (% NETosis)” value was determined as 62.82%.

For `CC(=O)Nc1ccc2c(c1)OCc1cc(-c3cnn(C)c3)nn1C2` [Example 112], half-maximal inhibition in assay [1] (IC50) was put at 3050 nM. Regarding `CC(=O)Nc1ccc2c(c1)OCc1cc(-c3ccnc4[nH]ccc34)nn1C2` [Example 91], in assay [2], the “5 uM (% NETosis)” value was found to be 77.13%.

Regarding `CC(=O)Nc1ccc2c(c1)OCc1cc(-c3ccccc3F)nn1C2` [Example 55], the “5 uM (% NETosis)” value in assay [2] is given as 36.33%. Further, in assay [1], 46 nM corresponded to half-maximal inhibition (IC50). Regarding `CC(=O)Nc1ccc2c(c1)OCc1cc(-c3cncnc3)nn1C2` [Example 128], in assay [1], the IC50 came to 3100 nM.

Take `COc1cccc(C#N)c1-c1cc2n(n1)Cc1ccc(NC(C)=O)cc1OC2` [Example 94]: in assay [2], the “5 uM (% NETosis)” value is given as 90.90%.

With `CC(=O)Nc1ccc2c(c1)OCc1cc(-c3ccc4c(c3)NC(=O)C4)nn1C2` [Example 84], the “5 uM (% NETosis)” value in assay [2] came to 42.93%. On the same count and under the same terms, the result for `CC(=O)Nc1ccc2c(c1)OCc1cc(-c3ccccc3S(C)(=O)=O)nn1C2` [Example 81] reads 84.34%. Consider `CCn1cc(-c2cc3n(n2)Cc2ccc(NC(C)=O)cc2OC3)cn1` [Example 114], for which, in assay [1], the IC50 came out at 405 nM. In the case of `COc1ccncc1-c1cc2n(n1)Cc1ccc(NC(C)=O)cc1OC2` [Example 70], the “5 uM (% NETosis)” value in assay [2] was 78.10%. Turning to `CC(=O)Nc1ccc2c(c1)OCc1cc(-c3cccc(F)c3)nn1C2` [Example 56], the “5 uM (% NETosis)” value in assay [2] was found to be 35.77%.

`COc1cncc(-c2cc3n(n2)Cc2ccc(NC(C)=O)cc2OC3)c1` [Example 71]: the “5 uM (% NETosis)” value in assay [2] was found to be 69.95%.

Turning to `CC(=O)Nc1ccc2c(c1)OCc1cc(-c3ccccc3C3CC3)nn1C2` [Example 76], the “5 uM (% NETosis)” value in assay [2] came out at 63.32%. In assay [1], `CC(=O)Nc1ccc2c(c1)OCc1cc(-c3ccnc(C)c3)nn1C2` [Example 126] registered an IC50 of 529 nM. `N#CCNc1ccc2c(c1)OCc1cc(-c3ccccc3)nn1C2` [Example 39]: the “5 uM (% NETosis)” value in assay [2] stood at 52.08%. Further, it took 510 nM to reach half-maximal inhibition in assay [1] (IC50). With `CC(=O)Nc1ccc2c(c1)OCc1cc(-c3cc(C)nn3C)nn1C2` [Example 58], in assay [2], the “5 uM (% NETosis)” value stood at 53.96%. The molecule further displayed an IC50 in assay [1] of 2440 nM. Regarding `C#CCNc1ccc2c(c1)OCc1cc(-c3ccccc3)nn1C2` [Example 41], the “5 uM (% NETosis)” value in assay [2] is reported as 73.65%. Take `Clc1cc(Nc2ccc3c(c2)OCc2cc(-c4ccccc4)nn2C3)[nH]n1` [Example 27]: the “5 uM (% NETosis)” value in assay [2] is 54.56%.

On to `CNC(=O)c1ccc(-c2cc3n(n2)Cc2ccc(NC(C)=O)cc2OC3)cn1` [Example 73], for which, in assay [2], the “5 uM (% NETosis)” value worked out at 82.63%. Turning to `COc1ccc(-c2cc3n(n2)Cc2ccc(NC(C)=O)cc2OC3)cc1` [Example 3, N-(2-(4-Methoxyphenyl)-4H,10H-benzo[f]pyrazolo[5,1-c][1,4]oxazepin-7-yl)acetamide], in assay [2], the IC50 is 520 ± 60 nM.
